Results: paper PMC9016025, “Translational imaging of the fibroblast activation protein (FAP) using the new ligand [^68Ga]Ga-OncoFAP-DOTAGA” (European Journal of Nuclear Medicine and Molecular Imaging, 2021)

Tested on: subcutaneous HT1080 (FAP−) and HT1080-hFAP (FAP+) tumors
Experiment: Gamma counting biodistribution in tumor-bearing mice
Type: in vivo, mouse
Protocol: For tumor-xenograft models, female NMRI nu/nu mice (Janvier, France), 8–9 weeks old, were housed at a constant temperature (22 °C) and relative humidity (40–55%) under a regular light/dark schedule. Food and water were available ad libitum.
Tumor cells (10^6 cells in 50 μL saline) were implanted subcutaneously in the shoulders of NMRI mice with HT1080 wildtype (FAP^−) in one shoulder and with stably transfected human FAP-expressing HT1080 cells (FAP^+) in the contralateral shoulder. Cells were kindly provided by U. Haberkorn, University of Heidelberg. At day 11 after implantation, mice received whole-body PET/MRI (1 T Mediso nanoScan) imaging with list mode PET for 60 min and additional non-contrast-enhanced anatomic, coronal T1-weighted MRI, followed by late static PET/MRI imaging 180 min p.i. Either ^68Ga-OncoFAP or ^68Ga-FAPI-46 (n = 6 each) was injected into the tail vein with a syringe pump at 1000 μL/min in a volume of 100 μL 30 s after the start of PET. At the next day (day 12 after implantation), the same mice were injected with the respective other FAP-tracer and received identical dynamic PET/MRI for 60 min. […] All involved measuring hardware (dose calibrator ISOMED 2010, automatic γ-counter PERKIN ELMER WALAC 2480, Twilite coincidence detector Swisstrace, PET/MRI) were cross-calibrated for ^68Ga. Overall, 3 scans were rejected, because of extravasation (day 11 OncoFAP), inability of i.v. access (day 12 FAPI-46), and insufficient radioactivity (day 12 FAPI-46), respectively. The resulting injected amounts of radioactivity for the remaining 11 ^68Ga-OncoFAP scans and 10 ^68Ga-FAPI-46 scans were 19.2 ± 4.4 MBq and 18.2 ± 4.8 MBq, respectively.

Q: How did the organ-to-blood ratio brain (gamma counting 1 h p.i.) turn out when CN(CCCN1CCN(C(=O)CN2CCN(CC(=O)[O-])CCN(CC(=O)[O-])CCN(CC(=O)[O-])CC2)CC1)c1ccc2nccc(C(=O)NCC(=O)N3CC(F)(F)C[C@H]3C#N)c2c1.[68Ga+3] [^68Ga-FAPI-46, [^68Ga]Ga-FAPI-46] was run?
A: 0.06 ± 0.01

Q: What about the organ-to-blood ratio heart (gamma counting 1 h p.i.) of the same compound?
A: 0.36 ± 0.04

Q: And the organ-to-blood ratio kidney (gamma counting 1 h p.i.)?
A: 11.58 ± 8.84

Q: And the organ-to-blood ratio liver (gamma counting 1 h p.i.)?
A: 0.70 ± 0.23

Q: What about the organ-to-blood ratio lung (gamma counting 1 h p.i.) of the same compound?
A: 1.84 ± 1.04

Q: What about the organ-to-blood ratio muscle (gamma counting 1 h p.i.) of the same compound?
A: 0.31 ± 0.11

Q: And the organ-to-blood ratio spleen (gamma counting 1 h p.i.)?
A: 0.43 ± 0.06

Q: What about the “organ-to-blood ratio tumor FAP+ (tumor-to-blood ratio)” value (gamma counting 1 h p.i.) of the same compound?
A: 1.98 ± 0.92

Q: And the “organ-to-blood ratio tumor FAP-” value (gamma counting 1 h p.i.)?
A: 0.55 ± 0.08

Q: What about the uptake blood (gamma counting 1 h p.i.) of the same compound?
A: 0.69 ± 0.15 % ID/g

Q: What about the uptake heart (gamma counting 1 h p.i.) of the same compound?
A: 0.25 ± 0.07 % ID/g

Q: And the uptake kidney (gamma counting 1 h p.i.)?
A: 8.58 ± 7.52 % ID/g

Q: What about the uptake liver (gamma counting 1 h p.i.) of the same compound?
A: 0.46 ± 0.06 % ID/g

Q: And the uptake lung (gamma counting 1 h p.i.)?
A: 1.17 ± 0.43 % ID/g

Q: What about the uptake muscle (gamma counting 1 h p.i.) of the same compound?
A: 0.21 ± 0.07 % ID/g

Q: What about the uptake plasma (gamma counting 1 h p.i.) of the same compound?
A: 1.02 ± 0.30 % ID/g

Q: What about the uptake spleen (gamma counting 1 h p.i.) of the same compound?
A: 0.29 ± 0.05 % ID/g

Q: And the “uptake tumor FAP+” value (gamma counting 1 h p.i.)?
A: 1.28 ± 0.40 % ID/g

Q: What about the “uptake tumor FAP-” value (gamma counting 1 h p.i.) of the same compound?
A: 0.38 ± 0.12 % ID/g

Q: And the uptake urine (gamma counting 1 h p.i.)?
A: 525.55 ± 279.13 % ID/g

Q: And the organ-to-blood ratio brain (gamma counting 3 h p.i.)?
A: 0.15 ± 0.10

Q: And the organ-to-blood ratio heart (gamma counting 3 h p.i.)?
A: 0.51 ± 0.23

Q: What about the organ-to-blood ratio kidney (gamma counting 3 h p.i.) of the same compound?
A: 10.39 ± 5.81

Q: And the organ-to-blood ratio liver (gamma counting 3 h p.i.)?
A: 1.73 ± 1.28

Q: What about the organ-to-blood ratio lung (gamma counting 3 h p.i.) of the same compound?
A: 2.27 ± 1.98

Q: What about the organ-to-blood ratio muscle (gamma counting 3 h p.i.) of the same compound?
A: 0.38 ± 0.26

Q: And the organ-to-blood ratio spleen (gamma counting 3 h p.i.)?
A: 0.78 ± 0.47

Q: What about the “organ-to-blood ratio tumor FAP+ (tumor-to-blood ratio)” value (gamma counting 3 h p.i.) of the same compound?
A: 28.62 ± 17.69

Q: And the “organ-to-blood ratio tumor FAP-” value (gamma counting 3 h p.i.)?
A: 1.15 ± 0.67

Q: And the uptake blood (gamma counting 3 h p.i.)?
A: 0.22 ± 0.31 % ID/g

Q: What about the uptake brain (gamma counting 3 h p.i.) of the same compound?
A: 0.01 ± 0.00 % ID/g

Q: What about the uptake heart (gamma counting 3 h p.i.) of the same compound?
A: 0.05 ± 0.02 % ID/g

Q: What about the uptake kidney (gamma counting 3 h p.i.) of the same compound?
A: 0.98 ± 0.60 % ID/g

Q: What about the uptake liver (gamma counting 3 h p.i.) of the same compound?
A: 0.14 ± 0.03 % ID/g

Q: What about the uptake lung (gamma counting 3 h p.i.) of the same compound?
A: 0.17 ± 0.06 % ID/g

Q: What about the uptake muscle (gamma counting 3 h p.i.) of the same compound?
A: 0.04 ± 0.02 % ID/g

Q: What about the uptake plasma (gamma counting 3 h p.i.) of the same compound?
A: 0.38 ± 0.53 % ID/g

Q: What about the uptake spleen (gamma counting 3 h p.i.) of the same compound?
A: 0.07 ± 0.02 % ID/g

Q: And the “uptake tumor FAP+” value (gamma counting 3 h p.i.)?
A: 2.64 ± 0.60 % ID/g

Q: What about the “uptake tumor FAP-” value (gamma counting 3 h p.i.) of the same compound?
A: 0.11 ± 0.03 % ID/g
